According to US8916711B2, “Imidazothiazole-chalcone derivatives as potential anticancer agents and process for the preparation thereof” (Council of Scientific and Industrial Research, priority 2009, dated 2014):
Read-outs that look alike come from different tables or passages of the source.

Key:
Format in all cases: cell-based
K-562 = test: NCI in vitro cytotoxicity (SRB, 48 h), Leukemia panel; settings: Homo sapiens, K562; K-562, Leukemia; 48 h exposure
SF-268 = test: NCI in vitro cytotoxicity (SRB, 48 h), CNS panel; settings: Homo sapiens; SF-268, CNS; 48 h exposure
CAKI-1 = test: NCI in vitro cytotoxicity (SRB, 48 h), Renal panel; settings: Homo sapiens; CAKI-1, Renal; 48 h exposure
A549/ATCC = test: NCI in vitro cytotoxicity (SRB, 48 h), Non-small cell lung panel; settings: Homo sapiens, 48 h exposure
Breast cancer cell lines = test: NCI in vitro cytotoxicity, whole panel; settings: Homo sapiens
NCI-H23 = test: NCI in vitro cytotoxicity (SRB, 48 h), Non-small cell lung panel; settings: Homo sapiens, 48 h exposure
UACC-62 = test: NCI in vitro cytotoxicity (SRB, 48 h), Melanoma panel; settings: Homo sapiens; UACC-62, Melanoma; 48 h exposure
[1] = tested on: Non-small-cell lung cancer cell lines; test: NCI in vitro cytotoxicity, whole panel; settings: Homo sapiens
SNB-19 = test: NCI in vitro cytotoxicity (SRB, 48 h), CNS panel; settings: Homo sapiens; SNB-19, CNS; 48 h exposure
COLO 205 = test: NCI in vitro cytotoxicity (SRB, 48 h), Colon panel; settings: Homo sapiens; COLO 205, Colon; 48 h exposure
SNB-75 = test: NCI in vitro cytotoxicity (SRB, 48 h), CNS panel; settings: Homo sapiens; SNB-75, CNS; 48 h exposure
Colon cancer cell lines = test: NCI in vitro cytotoxicity, whole panel; settings: Homo sapiens
MOLT-4 = test: NCI in vitro cytotoxicity (SRB, 48 h), Leukemia panel; settings: Homo sapiens; MOLT-4, Leukemia; 48 h exposure
MDA-MB-231/ATCC = test: NCI in vitro cytotoxicity (SRB, 48 h), Breast panel; settings: Homo sapiens
Experimental: (§1) The imidazothiazole-chalcone hybrids 7a, 7e, 7f, 8f and 19e have been tested against sixty human tumour cell lines derived from nine cancer types (leukemia, non-small cell lung cancer, colon cancer, CNS cancer, melanoma, ovarian cancer, renal cancer, prostate cancer and breast cancer) as per NCI protocol. For each compound, dose response curves for individual cell lines have been measured at a minimum of five concentrations at 10 fold dilutions. A protocol of 48 h continuous drug exposure has been used, and a sulforhodamine B (SRB) protein assay was used to estimate cell viability or growth. The concentration for 50% cell growth inhibition (GI50), total cell growth inhibition (TGI, 0% growth) and 50% cell death (LC50, […]) compared with the control has been calculated (Table-1).

MCF7 = test: as above; settings: Homo sapiens
Experimental: as §1

ACHN = test: NCI in vitro cytotoxicity (SRB, 48 h), Renal panel; settings: Homo sapiens, 48 h exposure
T-47D = test: NCI in vitro cytotoxicity (SRB, 48 h), Breast panel; settings: Homo sapiens, T47D, 48 h exposure
SK-MEL-2 = test: NCI in vitro cytotoxicity (SRB, 48 h), Melanoma panel; settings: Homo sapiens; SK-MEL-2, Melanoma; 48 h exposure
BT-549 = test: NCI in vitro cytotoxicity (SRB, 48 h), Breast panel; settings: Homo sapiens; BT-549, Breast; 48 h exposure
IGROV1 = test: NCI in vitro cytotoxicity (SRB, 48 h), Ovarian panel; settings: Homo sapiens, IGROV-1; IGROV1, Ovarian; 48 h exposure
NCI-H226 = test: NCI in vitro cytotoxicity (SRB, 48 h), Non-small cell lung panel; settings: Homo sapiens, 48 h exposure
RPMI-8226 = test: NCI in vitro cytotoxicity (SRB, 48 h), Leukemia panel; settings: Homo sapiens; RPMI-8226, Leukemia; 48 h exposure
SF-295 = test: NCI in vitro cytotoxicity (SRB, 48 h), CNS panel; settings: Homo sapiens; SF-295, CNS; 48 h exposure
NCI-H322M = test: NCI in vitro cytotoxicity (SRB, 48 h), Non-small cell lung panel; settings: Homo sapiens, 48 h exposure
NCI-H460 = test: as above; settings: Homo sapiens, 48 h exposure
SF-539 = test: NCI in vitro cytotoxicity (SRB, 48 h), CNS panel; settings: Homo sapiens; SF-539, CNS; 48 h exposure
A498 = test: NCI in vitro cytotoxicity (SRB, 48 h), Renal panel; settings: Homo sapiens, 48 h exposure
SN12C = test: NCI in vitro cytotoxicity (SRB, 48 h), Renal panel; settings: Homo sapiens, 48 h exposure
HCC-2998 = test: NCI in vitro cytotoxicity (SRB, 48 h), Colon panel; settings: Homo sapiens; HCC-2998, Colon; 48 h exposure
OVCAR-5 = test: NCI in vitro cytotoxicity (SRB, 48 h), Ovarian panel; settings: Homo sapiens; OVCAR-5, Ovarian; 48 h exposure
CNS cancer cell lines = test: NCI in vitro cytotoxicity, whole panel; settings: Homo sapiens
NCI/ADR-RES = test: NCI in vitro cytotoxicity (SRB, 48 h), Ovarian panel; settings: Homo sapiens, 48 h exposure
MDAMB-435 = test: NCI in vitro cytotoxicity (SRB, 48 h), Melanoma panel; settings: Homo sapiens, MDA-MB-435; MDAMB-435, Melanoma; 48 h exposure
HCT-116 = test: NCI in vitro cytotoxicity (SRB, 48 h), Colon panel; settings: Homo sapiens

COc1ccc(C(=O)/C=C/c2c(C(F)(F)F)nc3sccn23)cc1OC [Compound 8f, (E)-1-(3,4-dimethoxyphenyl)-3-(6-(trifluoromethyl)imidazo[2,1-b]thiazol-5-yl) prop-2-en-1-one]
GI50 (K-562): 2.25 µM
GI50 (SF-268): 3.44 µM
GI50 (CAKI-1): 2.46 µM
GI50 (A549/ATCC): 4.65 µM
GI50 (Breast cancer cell lines; Breast, average of six to eight cell lines, read-out: Log10 GI50 (converted)): 2.95 µM
CC50 (Breast cancer cell lines; Breast, average of six to eight cell lines, read-out: Log10 LC50 (converted)): ≥ 100 µM
IC50 (Breast cancer cell lines; exposure period of at least 48 hrs, read-out: IC50, range over breast cell lines): 0.76 to 6.18 µM
GI50 (NCI-H23): 2.78 µM
GI50 (UACC-62): 4.85 µM
GI50 ([1]; Non-small-cell lung, average of six to eight cell lines, read-out: Log10 GI50 (converted)): 3.98 µM
CC50 ([1]; Non-small-cell lung, average of six to eight cell lines, read-out: Log10 LC50 (converted)): ≥ 100 µM
GI50 ([1]; exposure period of at least 48 hrs, read-out: GI50, range over lung cell lines): 1.94 to 6.95 µM
GI50 (SNB-19): 4.25 µM
GI50 (COLO 205): 4.56 µM
GI50 (SNB-75): 6.87 µM
GI50 (Colon cancer cell lines; Colon, average of six to eight cell lines, read-out: Log10 GI50 (converted)): 2.45 µM
CC50 (Colon cancer cell lines; Colon, average of six to eight cell lines, read-out: Log10 LC50 (converted)): ≥ 100 µM
GI50 (Colon cancer cell lines; exposure period of at least 48 hrs, read-out: GI50, range over colon cell lines): 1.4 to 4.56 µM
GI50 (MOLT-4): 2.22 µM
GI50 (MDA-MB-231/ATCC; Breast, 48 h exposure): 5.91 µM
IC50 (MDA-MB-231/ATCC; Table 4, read-out: Comparative efficacy): 0.76 µM
IC50 (MCF7; MCF7, MCF-7, Table 4, read-out: Comparative efficacy): 0.76 µM
GI50 (MCF7; MCF7, Breast, 48 h exposure): 0.76 µM
GI50 (ACHN): 5.1 µM
GI50 (T-47D): 2.9 µM
GI50 (SK-MEL-2): 4.08 µM
GI50 (BT-549): 3.25 µM
GI50 (IGROV1): 3.15 µM
GI50 (NCI-H226): 6.95 µM
GI50 (RPMI-8226): 1.62 µM
GI50 (SF-295): 3.14 µM
GI50 (NCI-H322M): 3.17 µM
GI50 (NCI-H460): 1.94 µM
GI50 (SF-539): 2.36 µM
GI50 (A498): 7.58 µM
GI50 (SN12C): 2.98 µM
GI50 (HCC-2998): 5.07 µM
GI50 (OVCAR-5): 4.18 µM
GI50 (CNS cancer cell lines; CNS cell, exposure period of at least 48 hrs, read-out: GI50, range over CNS cell lines): 1.87 to 6.87 µM
GI50 (CNS cancer cell lines; CNS, average of six to eight cell lines, read-out: Log10 GI50 (converted)): 3.39 µM
CC50 (CNS cancer cell lines; CNS, average of six to eight cell lines, read-out: Log10 LC50 (converted)): ≥ 100 µM
GI50 (NCI/ADR-RES): 1.88 µM
GI50 (MDAMB-435): 1.85 µM
IC50 (HCT-116; HCT-116, HCT116, Table 4, read-out: Comparative efficacy): 1.4 µM
GI50 (HCT-116; HCT-116, Colon, 48 h exposure): 1.4 µM
